Measured values taken from patent publication US11155740B2, “Shale hydration inhibitor and method of use” (M-I L.L.C., priority 2014, dated 2021).

Test: OECD 306 marine biodegradation
Excerpt: In the following example, additive formulations were studied for biodegradability in order to quantify the suitability of the formulations for use in environmentally sensitive areas. One measure of sample toxicity is marine biodegradation data as outlined in Organization for Economic Cooperation and Development, Procedure OECD 306 or BODIS. Under OECD 306, the rules that governing offshore chemical use set forth three tests: bioaccumulation, biodegradation and toxicity. In order for a chemical to be used without restriction offshore in the North Sea it must satisfy two of the following three criteria: (1) biodegradation must be greater than 60%, if less than 20% it is automatically marked for substitution; (2) bioaccumulation as measured by octanol/water partitioning coefficient (log Po/w) must be below 3 (or have a molecular weight >700); and toxicity to the most sensitive marine species (often Skeletonema) must be greater than LC50 or EC50 of 10 ppm.
During the biodegradation testing, samples were formulated as show below in Table 4, where polyetheramine is a diamino-functionalized JEFFAMINE™.
Samples were then subjected to biodegradation and results were tabulated as shown below in Table 5. Comparative samples of sodium benzoate and ULTRAHIB™ PLUS, an amine-based shale inhibitor commercially available from M-I L.L.C., were also assayed.

O=C([O-])c1ccccc1.[Na+] [Sodium benzoate]
OECD 306 Biodegradation Day 7 (Day 7): 64%
OECD 306 Biodegradation Day 14 (Day 14): 71%
OECD 306 Biodegradation Day 21 (Day 21): 76%
OECD 306 Biodegradation Day 28 (Day 28): 78%
